According to PMC5563285 (Protein & Cell, 2017):
Positions of bridges follow the written chain, without caps; N, C: chain ends. Residues, ends and D or L forms follow the SMILES beside them.

The compounds below were run against T1, Ac-AChBP (acetylcholine binding protein) (Aplysia californica, UniProt Q8WSF8) (assay: biochemical).
T1 construct: The cDNA encoding the full-length Ac-AChBP was cloned into the pFastBac-Dual vector; 6xHis (C); made in house; host or cells: High Five insect cells (baculovirus, Bac-to-Bac; virus made in Sf9)
T1 sequence (Q8WSF8 20-236): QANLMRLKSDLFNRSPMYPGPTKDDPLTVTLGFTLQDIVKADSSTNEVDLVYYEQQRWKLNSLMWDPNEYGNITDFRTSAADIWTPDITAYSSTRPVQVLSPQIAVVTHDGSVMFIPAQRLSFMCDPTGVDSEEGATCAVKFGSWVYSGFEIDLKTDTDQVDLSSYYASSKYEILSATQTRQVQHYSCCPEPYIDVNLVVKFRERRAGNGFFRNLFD
`CC[C@H](C)[C@@H]1NC(=O)[C@H](CCC(=O)O)NC(=O)[C@@H]2CCCN2C(=O)[C@H](Cc2cnc[nH]2)NC(=O)[C@H](C)NC(=O)[C@H](C(C)C)NC(=O)[C@H](CC(N)=O)NC(=O)[C@@H]2CSSC[C@H](NC(=O)CN)C(=O)N[C@@H](CSSC[C@@H](C(N)=O)NC1=O)C(=O)N[C@@H](CO)C(=O)N[C@@H](Cc1cnc[nH]1)C(=O)N1CCC[C@H]1C(=O)N[C@@H](C)C(=O)N2` [LvIA (D11A)] (H-GCCSHPACNVAHPEIC-NH2; disulfide 2-8, 3-16) was tested, and the Kd was 17.5 nM.
With `CC[C@H](C)[C@@H]1NC(=O)[C@H](CCC(=O)O)NC(=O)[C@@H]2CCCN2C(=O)[C@H](Cc2cnc[nH]2)NC(=O)[C@H](CC(=O)O)NC(=O)[C@H](C(C)C)NC(=O)[C@H](CC(N)=O)NC(=O)[C@@H]2CSSC[C@H](NC(=O)CN)C(=O)N[C@@H](CSSC[C@@H](C(N)=O)NC1=O)C(=O)N[C@@H](C)C(=O)N[C@@H](Cc1cnc[nH]1)C(=O)N1CCC[C@H]1C(=O)N[C@@H](C)C(=O)N2` [LvIA (S4A)] (H-GCCAHPACNVDHPEIC-NH2; disulfide 2-8, 3-16) the Kd was 23.8 nM.
For `CC[C@H](C)[C@@H]1NC(=O)[C@H](CCC(=O)O)NC(=O)[C@@H]2CCCN2C(=O)[C@H](Cc2cnc[nH]2)NC(=O)[C@H](CC(=O)O)NC(=O)[C@H](C(C)C)NC(=O)[C@H](CC(N)=O)NC(=O)[C@@H]2CSSC[C@H](NC(=O)CN)C(=O)N[C@@H](CSSC[C@@H](C(N)=O)NC1=O)C(=O)N[C@@H](CO)C(=O)N[C@@H](Cc1cnc[nH]1)C(=O)N1CCC[C@H]1C(=O)N[C@@H](C)C(=O)N2` [LvIA WT], the Kd was 132 nM.
`CC[C@H](C)[C@@H]1NC(=O)[C@H](CCC(=O)O)NC(=O)[C@@H]2CCCN2C(=O)[C@H](Cc2cnc[nH]2)NC(=O)[C@H](CC(=O)O)NC(=O)[C@H](C(C)C)NC(=O)[C@H](C)NC(=O)[C@@H]2CSSC[C@H](NC(=O)CN)C(=O)N[C@@H](CSSC[C@@H](C(N)=O)NC1=O)C(=O)N[C@@H](CO)C(=O)N[C@@H](Cc1cnc[nH]1)C(=O)N1CCC[C@H]1C(=O)N[C@@H](C)C(=O)N2` [LvIA (N9A)] (H-GCCSHPACAVDHPEIC-NH2; disulfide 2-8, 3-16) was tested, and the Kd was 82.8 nM.

The compounds below were run against Aplysia californica acetylcholine binding protein (Ac-AChBP) (Aplysia californica) (assay: SPR).
Compound α-conotoxin LvIA (peptide) has a Kd of 132 nM.
Work on α-conotoxin LvIA (S4A) (peptide) yielded a Kd of 23.8 nM.
Work on α-conotoxin LvIA (N9A) (peptide) yielded a Kd of 82.8 nM.
